Measured values as given in ChEMBL document CHEMBL1649140, “Accelerated metabolism of voriconazole and its partial reversal by cimetidine” (Antimicrob Agents Chemother, 2009).
Converted amounts (≈) assume the structure as drawn.

How the values were obtained:
[1] = Cmin in patient with invasive pulmonary aspergillosis at 9.2 mg/kg, iv administered every 12 hrs measured after 8 days; assay type: ADME, organism-based; set-up: dose 9.2 mg/kg, route intravenous; details: human, in vivo, read-out: Cmin
[2] = tested on: Aspergillus ustus; experiment: Antifungal activity against Aspergillus ustus; assay type: functional

C[C@@H](c1ncncc1F)[C@](O)(Cn1cncn1)c1ccc(F)cc1F [VORICONAZOLE]
concentration at 192 h [1]: 1170 ng/mL
MIC [2]: 4 µg/mL (≈ 11.5 µM)
